ChEMBL document CHEMBL5291721, “A preclinical secondary pharmacology resource illuminates target-adverse drug reaction associations of marketed drugs” (Nat Commun, 2023)

Tests used:
[1] = molecular target: T1, Alpha-1A adrenergic receptor (Homo sapiens, UniProt P35348)
T1 sequence (P35348 whole entry): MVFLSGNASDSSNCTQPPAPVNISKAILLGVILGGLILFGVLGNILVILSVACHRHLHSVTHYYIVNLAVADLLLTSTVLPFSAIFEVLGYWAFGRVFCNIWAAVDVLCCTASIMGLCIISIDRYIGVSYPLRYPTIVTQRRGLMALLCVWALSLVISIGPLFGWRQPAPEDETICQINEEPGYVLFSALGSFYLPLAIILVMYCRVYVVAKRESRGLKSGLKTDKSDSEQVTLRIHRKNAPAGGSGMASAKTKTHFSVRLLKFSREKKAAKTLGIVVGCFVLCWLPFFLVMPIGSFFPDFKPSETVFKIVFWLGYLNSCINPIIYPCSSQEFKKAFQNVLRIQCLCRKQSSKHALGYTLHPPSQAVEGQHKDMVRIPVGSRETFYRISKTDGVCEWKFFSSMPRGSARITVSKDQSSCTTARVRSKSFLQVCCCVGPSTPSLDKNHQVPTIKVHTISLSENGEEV

[2] = molecular target: Gamma-aminobutyric acid receptor subunit alpha-1/alpha-2/beta-2/gamma-2 (Homo sapiens, UniProt P14867+P18507+P47869+P47870); type: functional, cell-based
Melanocortin receptor 4 = Melanocortin receptor 4 (Homo sapiens, UniProt P32245)
[3] = molecular target: T2, 5-hydroxytryptamine receptor 1A (Homo sapiens, UniProt P08908)
T2 sequence (P08908 whole entry): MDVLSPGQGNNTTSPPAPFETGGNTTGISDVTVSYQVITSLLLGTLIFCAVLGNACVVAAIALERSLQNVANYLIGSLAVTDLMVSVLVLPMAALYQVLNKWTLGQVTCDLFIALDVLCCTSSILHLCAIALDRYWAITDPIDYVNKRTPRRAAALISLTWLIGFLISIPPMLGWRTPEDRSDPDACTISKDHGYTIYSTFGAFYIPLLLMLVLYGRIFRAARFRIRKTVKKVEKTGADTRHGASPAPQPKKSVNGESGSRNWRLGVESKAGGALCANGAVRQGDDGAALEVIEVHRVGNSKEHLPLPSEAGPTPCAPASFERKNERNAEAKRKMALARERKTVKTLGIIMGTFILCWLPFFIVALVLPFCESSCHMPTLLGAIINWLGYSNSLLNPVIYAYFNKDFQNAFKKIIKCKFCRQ

[4] = molecular target: Beta-3 adrenergic receptor (Homo sapiens, UniProt P13945)
[5] = molecular target: Voltage-dependent N-type calcium channel subunit alpha-1B (Rattus norvegicus, UniProt Q02294); type: functional
[6] = molecular target: T3, Gastric inhibitory polypeptide receptor (Homo sapiens, UniProt P48546)
T3 sequence (P48546 whole entry): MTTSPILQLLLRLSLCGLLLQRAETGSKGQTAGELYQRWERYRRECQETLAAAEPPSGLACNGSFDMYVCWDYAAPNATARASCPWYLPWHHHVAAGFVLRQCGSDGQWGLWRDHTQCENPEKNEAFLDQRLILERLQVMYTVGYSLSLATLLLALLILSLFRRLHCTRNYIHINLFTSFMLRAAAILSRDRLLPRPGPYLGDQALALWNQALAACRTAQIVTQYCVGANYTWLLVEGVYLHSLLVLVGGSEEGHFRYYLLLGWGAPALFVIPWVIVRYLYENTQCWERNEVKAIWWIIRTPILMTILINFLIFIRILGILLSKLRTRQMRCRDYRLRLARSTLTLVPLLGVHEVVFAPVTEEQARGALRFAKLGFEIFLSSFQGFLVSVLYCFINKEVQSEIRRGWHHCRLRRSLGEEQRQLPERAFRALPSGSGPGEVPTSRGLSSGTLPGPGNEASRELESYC

D(1A) dopamine receptor = D(1A) dopamine receptor (Homo sapiens, UniProt P21728)
Mu-type opioid receptor = Mu-type opioid receptor (Homo sapiens, UniProt P35372); assay: biochemical; type: functional
Histamine H1 receptor = Histamine H1 receptor (Homo sapiens, UniProt P35367)
[7] = molecular target: Sodium-dependent serotonin transporter (Homo sapiens, UniProt P31645)
[8] = molecular target: T4, Peroxisome proliferator-activated receptor gamma (Homo sapiens, UniProt P37231); type: functional
T4 sequence (P37231 whole entry): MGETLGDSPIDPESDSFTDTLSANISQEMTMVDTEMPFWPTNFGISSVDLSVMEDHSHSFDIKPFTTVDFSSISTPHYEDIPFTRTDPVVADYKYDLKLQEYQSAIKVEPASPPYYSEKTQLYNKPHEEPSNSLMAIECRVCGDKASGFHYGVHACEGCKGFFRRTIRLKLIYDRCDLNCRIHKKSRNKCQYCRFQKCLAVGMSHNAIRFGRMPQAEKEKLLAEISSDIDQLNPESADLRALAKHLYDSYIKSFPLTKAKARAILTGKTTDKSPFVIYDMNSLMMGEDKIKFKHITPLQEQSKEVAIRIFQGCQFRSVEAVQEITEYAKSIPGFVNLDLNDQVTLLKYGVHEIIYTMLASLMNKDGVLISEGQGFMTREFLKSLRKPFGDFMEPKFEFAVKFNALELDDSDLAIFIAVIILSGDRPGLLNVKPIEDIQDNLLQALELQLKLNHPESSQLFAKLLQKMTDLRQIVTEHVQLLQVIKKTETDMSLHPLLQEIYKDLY
Note: assay procedure not described here.

Chain of Histamine H1 receptor (P35367 whole entry): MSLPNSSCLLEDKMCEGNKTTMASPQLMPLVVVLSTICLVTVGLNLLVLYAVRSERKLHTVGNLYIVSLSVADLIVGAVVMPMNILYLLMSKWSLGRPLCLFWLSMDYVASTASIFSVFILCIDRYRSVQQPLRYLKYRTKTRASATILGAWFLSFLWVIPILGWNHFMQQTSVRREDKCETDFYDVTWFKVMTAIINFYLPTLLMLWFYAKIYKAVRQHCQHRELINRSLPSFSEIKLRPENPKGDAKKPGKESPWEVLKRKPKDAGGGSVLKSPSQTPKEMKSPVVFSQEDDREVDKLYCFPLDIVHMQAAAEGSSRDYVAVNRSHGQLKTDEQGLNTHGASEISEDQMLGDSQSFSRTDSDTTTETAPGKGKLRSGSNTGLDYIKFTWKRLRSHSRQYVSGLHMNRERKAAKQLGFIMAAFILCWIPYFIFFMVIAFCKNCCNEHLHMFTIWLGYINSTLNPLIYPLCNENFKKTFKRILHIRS
Chain of D(1A) dopamine receptor (P21728 whole entry): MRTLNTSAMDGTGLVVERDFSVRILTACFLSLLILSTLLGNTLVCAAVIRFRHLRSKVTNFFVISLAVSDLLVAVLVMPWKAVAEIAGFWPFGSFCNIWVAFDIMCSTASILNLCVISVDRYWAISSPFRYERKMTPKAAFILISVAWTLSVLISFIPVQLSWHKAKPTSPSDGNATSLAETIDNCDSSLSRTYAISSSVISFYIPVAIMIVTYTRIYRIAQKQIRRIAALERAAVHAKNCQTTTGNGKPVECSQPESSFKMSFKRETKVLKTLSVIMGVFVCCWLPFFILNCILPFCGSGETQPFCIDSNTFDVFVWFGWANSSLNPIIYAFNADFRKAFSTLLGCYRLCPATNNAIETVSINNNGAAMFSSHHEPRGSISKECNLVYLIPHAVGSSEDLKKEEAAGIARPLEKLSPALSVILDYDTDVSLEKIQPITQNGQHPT
Chain of Mu-type opioid receptor (P35372 whole entry): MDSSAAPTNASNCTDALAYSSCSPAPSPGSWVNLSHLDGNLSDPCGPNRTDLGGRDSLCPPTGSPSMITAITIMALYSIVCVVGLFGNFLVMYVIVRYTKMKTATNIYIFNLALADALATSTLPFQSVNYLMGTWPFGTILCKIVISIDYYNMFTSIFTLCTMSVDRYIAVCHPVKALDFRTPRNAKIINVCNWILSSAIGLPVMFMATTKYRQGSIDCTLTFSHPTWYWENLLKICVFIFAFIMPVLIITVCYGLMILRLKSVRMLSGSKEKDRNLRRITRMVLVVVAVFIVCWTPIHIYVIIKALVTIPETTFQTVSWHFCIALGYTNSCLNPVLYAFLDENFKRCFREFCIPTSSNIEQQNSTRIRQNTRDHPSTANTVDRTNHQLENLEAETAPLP
Chain of Beta-3 adrenergic receptor (P13945 whole entry): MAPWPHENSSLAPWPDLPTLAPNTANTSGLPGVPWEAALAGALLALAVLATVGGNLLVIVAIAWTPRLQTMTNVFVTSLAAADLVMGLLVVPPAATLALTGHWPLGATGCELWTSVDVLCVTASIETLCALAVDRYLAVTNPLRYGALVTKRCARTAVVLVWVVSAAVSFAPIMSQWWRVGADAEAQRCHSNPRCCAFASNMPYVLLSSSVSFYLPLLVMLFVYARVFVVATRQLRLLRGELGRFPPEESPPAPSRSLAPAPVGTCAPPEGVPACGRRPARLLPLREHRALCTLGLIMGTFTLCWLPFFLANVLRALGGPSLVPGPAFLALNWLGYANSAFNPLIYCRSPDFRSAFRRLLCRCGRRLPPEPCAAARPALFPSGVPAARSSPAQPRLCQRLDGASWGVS
Chain of Sodium-dependent serotonin transporter (P31645 whole entry): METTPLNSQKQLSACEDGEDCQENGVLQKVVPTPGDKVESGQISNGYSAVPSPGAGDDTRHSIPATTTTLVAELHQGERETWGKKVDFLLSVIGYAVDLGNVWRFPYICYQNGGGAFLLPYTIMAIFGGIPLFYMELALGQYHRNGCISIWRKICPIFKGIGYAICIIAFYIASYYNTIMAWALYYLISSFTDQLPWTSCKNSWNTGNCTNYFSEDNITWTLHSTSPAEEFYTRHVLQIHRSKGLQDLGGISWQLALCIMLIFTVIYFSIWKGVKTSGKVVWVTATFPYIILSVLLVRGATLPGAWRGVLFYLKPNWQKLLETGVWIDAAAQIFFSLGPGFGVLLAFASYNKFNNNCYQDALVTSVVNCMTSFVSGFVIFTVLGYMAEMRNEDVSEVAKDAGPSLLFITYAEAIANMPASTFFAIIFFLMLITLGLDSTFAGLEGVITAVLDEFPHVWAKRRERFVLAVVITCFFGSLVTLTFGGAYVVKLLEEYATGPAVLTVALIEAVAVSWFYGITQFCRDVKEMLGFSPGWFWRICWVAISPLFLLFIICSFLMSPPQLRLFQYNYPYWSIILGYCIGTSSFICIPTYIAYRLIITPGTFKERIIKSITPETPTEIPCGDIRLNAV
Chain of Gamma-aminobutyric acid receptor subunit alpha-1/alpha-2/beta-2/gamma-2 (P14867 whole entry): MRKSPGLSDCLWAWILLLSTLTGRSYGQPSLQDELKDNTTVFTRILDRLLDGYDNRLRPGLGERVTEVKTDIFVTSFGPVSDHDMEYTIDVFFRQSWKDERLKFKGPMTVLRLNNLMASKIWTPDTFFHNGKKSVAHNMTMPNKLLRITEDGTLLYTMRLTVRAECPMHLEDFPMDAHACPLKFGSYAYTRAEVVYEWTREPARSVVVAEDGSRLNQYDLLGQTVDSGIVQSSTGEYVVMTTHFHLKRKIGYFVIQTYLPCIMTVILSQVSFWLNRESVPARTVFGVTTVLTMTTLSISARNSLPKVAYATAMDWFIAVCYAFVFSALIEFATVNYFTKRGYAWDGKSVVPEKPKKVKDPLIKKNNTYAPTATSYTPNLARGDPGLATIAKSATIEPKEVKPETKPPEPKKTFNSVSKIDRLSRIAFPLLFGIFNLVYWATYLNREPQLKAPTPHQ
Chain of Gamma-aminobutyric acid receptor subunit alpha-1/alpha-2/beta-2/gamma-2 (P47870 whole entry): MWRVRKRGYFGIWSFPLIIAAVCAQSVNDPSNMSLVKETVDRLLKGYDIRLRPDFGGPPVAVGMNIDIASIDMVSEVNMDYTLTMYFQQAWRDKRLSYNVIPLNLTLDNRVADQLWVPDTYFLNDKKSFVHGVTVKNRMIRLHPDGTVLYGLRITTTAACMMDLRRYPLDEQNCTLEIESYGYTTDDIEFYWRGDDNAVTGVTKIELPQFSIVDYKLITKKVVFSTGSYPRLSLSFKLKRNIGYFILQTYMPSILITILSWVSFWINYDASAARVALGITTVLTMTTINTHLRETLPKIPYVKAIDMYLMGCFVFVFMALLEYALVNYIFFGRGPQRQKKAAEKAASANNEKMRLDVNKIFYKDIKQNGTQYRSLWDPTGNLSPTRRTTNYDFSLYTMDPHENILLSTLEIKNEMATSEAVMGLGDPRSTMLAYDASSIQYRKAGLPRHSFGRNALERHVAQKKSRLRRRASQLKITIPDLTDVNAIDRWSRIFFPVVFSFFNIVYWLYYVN
Chain of Gamma-aminobutyric acid receptor subunit alpha-1/alpha-2/beta-2/gamma-2 (P18507 whole entry): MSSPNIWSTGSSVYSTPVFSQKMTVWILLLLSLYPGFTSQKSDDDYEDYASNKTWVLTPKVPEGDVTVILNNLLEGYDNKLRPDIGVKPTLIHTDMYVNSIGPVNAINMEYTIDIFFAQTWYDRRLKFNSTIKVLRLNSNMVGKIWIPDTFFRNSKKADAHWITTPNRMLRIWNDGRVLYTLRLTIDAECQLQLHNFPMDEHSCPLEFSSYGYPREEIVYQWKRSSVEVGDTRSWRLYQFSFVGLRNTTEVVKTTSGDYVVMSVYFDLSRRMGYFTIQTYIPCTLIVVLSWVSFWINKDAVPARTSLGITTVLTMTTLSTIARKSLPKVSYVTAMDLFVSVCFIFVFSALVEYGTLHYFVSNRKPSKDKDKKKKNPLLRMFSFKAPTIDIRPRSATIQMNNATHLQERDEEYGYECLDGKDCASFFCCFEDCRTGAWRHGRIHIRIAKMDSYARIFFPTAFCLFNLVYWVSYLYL
Chain of Gamma-aminobutyric acid receptor subunit alpha-1/alpha-2/beta-2/gamma-2 (P47869 whole entry): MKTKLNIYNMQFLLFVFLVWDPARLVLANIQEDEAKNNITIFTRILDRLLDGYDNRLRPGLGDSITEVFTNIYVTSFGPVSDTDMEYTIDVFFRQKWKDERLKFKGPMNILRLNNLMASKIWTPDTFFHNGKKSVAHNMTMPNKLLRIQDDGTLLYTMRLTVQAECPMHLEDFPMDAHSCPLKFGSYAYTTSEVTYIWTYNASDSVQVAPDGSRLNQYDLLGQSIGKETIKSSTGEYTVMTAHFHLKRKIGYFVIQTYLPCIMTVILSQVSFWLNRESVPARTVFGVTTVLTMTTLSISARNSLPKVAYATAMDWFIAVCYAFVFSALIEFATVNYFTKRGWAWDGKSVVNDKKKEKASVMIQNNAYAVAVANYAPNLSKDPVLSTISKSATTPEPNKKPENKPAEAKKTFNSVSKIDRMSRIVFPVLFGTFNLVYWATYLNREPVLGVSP
Chain of Melanocortin receptor 4 (P32245 whole entry): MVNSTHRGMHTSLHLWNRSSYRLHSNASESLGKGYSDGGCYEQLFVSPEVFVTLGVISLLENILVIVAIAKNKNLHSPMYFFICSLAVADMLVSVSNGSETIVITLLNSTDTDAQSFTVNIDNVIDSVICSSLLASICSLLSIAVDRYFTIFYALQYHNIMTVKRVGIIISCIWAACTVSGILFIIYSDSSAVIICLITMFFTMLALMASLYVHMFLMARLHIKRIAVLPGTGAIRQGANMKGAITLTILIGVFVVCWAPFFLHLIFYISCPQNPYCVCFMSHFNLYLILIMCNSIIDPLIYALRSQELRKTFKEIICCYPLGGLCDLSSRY

| SMILES | AC50 [1] [µM] | AC50 (Melanocortin receptor 4) [µM] | AC50 [3] [µM] | AC50 (D(1A) dopamine receptor) [µM] | AC50 (Mu-type opioid receptor) [µM] | also measured |
| --- | --- | --- | --- | --- | --- | --- |
| CCc1oc2ccccc2c1C(=O)c1cc(Br)c(O)c(Br)c1 [BENZBROMARONE] | > 10 | > 30 | > 10 |  |  | AC50 [2]: > 30 µM |
| Clc1cccc(Cl)c1N=C1NCCN1 [CLONIDINE] |  | > 30 | > 10 | > 10 |  | AC50 [4]: > 30 µM; AC50 [5]: > 10 µM; AC50 [6]: > 30 µM |
| CC[C@@H](CO)NC(=O)[C@@H]1C=C2c3cccc4[nH]cc(c34)C[C@H]2N(C)C1 [METHYLERGONOVINE] | 12 |  |  |  | > 30 |  |
| [H]/N=C(\N/C(=N/[H])NCCCCCCNC(=N)NC(=N)Nc1ccc(Cl)cc1)Nc1ccc(Cl)cc1 [CHLORHEXIDINE] | 0.607 | 0.271 |  |  | > 10 | AC50 (Histamine H1 receptor): > 10 µM; AC50 [7]: 1 µM |
| CNCCC=C1c2ccccc2CCc2ccccc21 [NORTRIPTYLINE] | 0.114 |  |  | 0.386 | > 30 |  |
| Cc1cnc(NC(=O)C2=C(O)c3ccccc3S(=O)(=O)N2C)s1 [MELOXICAM] | > 10 | > 30 | > 10 | > 10 |  | AC50 [4]: > 30 µM; AC50 [5]: > 10 µM; AC50 [6]: > 30 µM |
| O=C1CN2Cc3c(ccc(Cl)c3Cl)N=C2N1 [ANAGRELIDE] | > 10 | > 30 | > 10 |  |  | AC50 (Histamine H1 receptor): > 10 µM; AC50 [7]: > 30 µM |
| CC[C@H]1OC(=O)[C@H](C)[C@@H](O[C@H]2C[C@@](C)(OC)[C@@H](O)[C@H](C)O2)[C@H](C)[C@@H](O[C@@H]2O[C@H](C)C[C@H](N(C)C)[C@H]2O)[C@](C)(O)C[C@@H](C)/C(=N\OCOCCOC)[C@H](C)[C@@H](O)[C@]1(C)O [ROXITHROMYCIN] |  |  |  |  |  | AC50 [2]: > 30 µM; AC50 [8]: > 30 µM |
| CNC(=O)c1cc(Oc2ccc(NC(=O)Nc3ccc(Cl)c(C(F)(F)F)c3)c(F)c2)ccn1 [REGORAFENIB] |  |  |  |  |  | AC50 (Histamine H1 receptor): > 30 µM; AC50 [7]: > 30 µM |
| Nc1nc(O)c2ncn(COC(CO)CO)c2n1 [GANCICLOVIR] |  |  |  |  | > 30 |  |
| Cc1cc(CC(=O)O)n(C)c1C(=O)c1ccc(Cl)cc1 [ZOMEPIRAC] |  |  |  |  | > 30 | AC50 (Histamine H1 receptor): > 30 µM; AC50 [7]: > 30 µM |
| CC(=O)Oc1ccccc1C(=O)Nc1ncc([N+](=O)[O-])s1 [NITAZOXANIDE] |  |  |  |  | > 30 | AC50 (Histamine H1 receptor): > 30 µM; AC50 [7]: 6.3 µM |
| CN1C[C@H](C(=O)N[C@]2(C)O[C@@]3(O)[C@@H]4CCCN4C(=O)[C@H](Cc4ccccc4)N3C2=O)C[C@@H]2c3cccc4[nH]cc(c34)C[C@H]21 [DIHYDROERGOTAMINE] | 0.0376 | > 30 | 0.0126 | 5.47 |  | AC50 [4]: 0.26 µM; AC50 [5]: > 10 µM; AC50 [6]: > 30 µM |
| CNCC[C@@H](Oc1ccccc1C)c1ccccc1 [ATOMOXETINE] |  |  |  |  | 18 |  |
| Cn1c(=O)c2[nH]cnc2n(C)c1=O [THEOPHYLLINE] | > 10 | > 30 | > 10 | > 10 |  | AC50 [5]: > 10 µM |
| CC(/C=C1\SC(=S)N(CC(=O)O)C1=O)=C\c1ccccc1 |  |  |  |  | > 30 |  |
| COc1ccnc(C[S+]([O-])c2nc3ccc(OC(F)F)cc3[nH]2)c1OC (centres undefined) [PANTOPRAZOLE] | 10.6 | > 30 | > 10 | > 10 |  | AC50 [4]: > 30 µM; AC50 [5]: > 10 µM; AC50 [6]: > 30 µM |
| COc1ccc(Cc2nccc3cc(OC)c(OC)cc23)cc1OC [PAPAVERINE] |  |  |  |  | > 30 |  |
| CC1(C)O[C@@H]2C[C@H]3[C@@H]4C[C@H](F)C5=CC(=O)C=C[C@]5(C)[C@H]4[C@@H](O)C[C@]3(C)[C@]2(C(=O)CO)O1 [FLUNISOLIDE] |  |  |  |  |  | AC50 [2]: > 30 µM; AC50 [8]: > 30 µM |
| CC(=O)/N=c1/sc(S(N)(=O)=O)nn1C [METHAZOLAMIDE] | > 10 | > 10 |  |  | > 30 | AC50 (Histamine H1 receptor): > 10 µM; AC50 [7]: > 10 µM |
| CCCCNc1ccc(C(=O)OCCN(C)C)cc1 [TETRACAINE] | > 10 | > 30 | > 10 | > 10 |  | AC50 [4]: > 30 µM; AC50 [5]: > 10 µM; AC50 [6]: > 30 µM |
